Key:
Assay in all cases: radiometric filter-binding kinase assay, Kinase HotSpot
Conditions in all cases: compound 0.5 µM; ATP 10 µM
CAMK2D (human) = CAMK2D (human) (UniProt Q13557)
NEK2 (human) = NEK2 (human) (UniProt P51955)
CDK6 CCND3 (human) = CDK6 CCND3 (human) (UniProt P30281+Q00534)
MYO3B (human) = MYO3B (human) (UniProt Q8WXR4)
PBK (human) = PBK (human) (UniProt Q96KB5)
EGFR (human) = EGFR (human) (UniProt P00533)
NEK1 (human) = NEK1 (human) (UniProt Q96PY6)
MAP4K4 (human) = MAP4K4 (human) (UniProt O95819)
SRPK1 (human) = SRPK1 (human) (UniProt Q96SB4)
ABL2 (human) = ABL2 (human) (UniProt P42684)
MARK3 (human) = MARK3 (human) (UniProt P27448)
HIPK4 (human) = HIPK4 (human) (UniProt Q8NE63)
GSK3A (human) = GSK3A (human) (UniProt P49840)
MYLK2 (human) = MYLK2 (human) (UniProt Q9H1R3)
PAK4 (human) = PAK4 (human) (UniProt O96013)
Chain of PAK4 (human) (O96013 whole entry, looked up): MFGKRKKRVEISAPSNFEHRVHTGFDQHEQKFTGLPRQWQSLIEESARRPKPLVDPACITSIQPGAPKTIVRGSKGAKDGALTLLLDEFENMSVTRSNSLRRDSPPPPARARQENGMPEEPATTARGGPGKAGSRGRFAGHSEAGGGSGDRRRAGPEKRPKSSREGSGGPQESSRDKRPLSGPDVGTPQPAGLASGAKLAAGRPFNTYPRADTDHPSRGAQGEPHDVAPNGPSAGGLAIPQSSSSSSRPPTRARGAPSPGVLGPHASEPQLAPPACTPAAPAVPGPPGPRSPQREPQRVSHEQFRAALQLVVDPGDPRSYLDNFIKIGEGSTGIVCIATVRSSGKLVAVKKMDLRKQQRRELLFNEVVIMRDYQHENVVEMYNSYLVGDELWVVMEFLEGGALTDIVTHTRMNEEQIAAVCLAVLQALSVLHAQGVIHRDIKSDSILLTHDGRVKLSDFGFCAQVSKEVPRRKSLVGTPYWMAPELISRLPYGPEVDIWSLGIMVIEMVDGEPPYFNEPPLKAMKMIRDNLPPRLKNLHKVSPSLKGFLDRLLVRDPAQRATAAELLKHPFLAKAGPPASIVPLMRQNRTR

EPHA3 (human) = EPHA3 (human) (UniProt P29320)
TAOK3 (human) = TAOK3 (human) (UniProt Q9H2K8)
CAMK2G (human) = CAMK2G (human) (UniProt Q13555)
PASK (human) = PASK (human) (UniProt Q96RG2)
NLK (human) = NLK (human) (UniProt Q9UBE8)
CSNK1G2 (human) = CSNK1G2 (human) (UniProt P78368)
TLK2 (human) = TLK2 (human) (UniProt Q86UE8)
EPHA5 (human) = EPHA5 (human) (UniProt P54756)
Chain of EPHA5 (human) (P54756 whole entry, looked up): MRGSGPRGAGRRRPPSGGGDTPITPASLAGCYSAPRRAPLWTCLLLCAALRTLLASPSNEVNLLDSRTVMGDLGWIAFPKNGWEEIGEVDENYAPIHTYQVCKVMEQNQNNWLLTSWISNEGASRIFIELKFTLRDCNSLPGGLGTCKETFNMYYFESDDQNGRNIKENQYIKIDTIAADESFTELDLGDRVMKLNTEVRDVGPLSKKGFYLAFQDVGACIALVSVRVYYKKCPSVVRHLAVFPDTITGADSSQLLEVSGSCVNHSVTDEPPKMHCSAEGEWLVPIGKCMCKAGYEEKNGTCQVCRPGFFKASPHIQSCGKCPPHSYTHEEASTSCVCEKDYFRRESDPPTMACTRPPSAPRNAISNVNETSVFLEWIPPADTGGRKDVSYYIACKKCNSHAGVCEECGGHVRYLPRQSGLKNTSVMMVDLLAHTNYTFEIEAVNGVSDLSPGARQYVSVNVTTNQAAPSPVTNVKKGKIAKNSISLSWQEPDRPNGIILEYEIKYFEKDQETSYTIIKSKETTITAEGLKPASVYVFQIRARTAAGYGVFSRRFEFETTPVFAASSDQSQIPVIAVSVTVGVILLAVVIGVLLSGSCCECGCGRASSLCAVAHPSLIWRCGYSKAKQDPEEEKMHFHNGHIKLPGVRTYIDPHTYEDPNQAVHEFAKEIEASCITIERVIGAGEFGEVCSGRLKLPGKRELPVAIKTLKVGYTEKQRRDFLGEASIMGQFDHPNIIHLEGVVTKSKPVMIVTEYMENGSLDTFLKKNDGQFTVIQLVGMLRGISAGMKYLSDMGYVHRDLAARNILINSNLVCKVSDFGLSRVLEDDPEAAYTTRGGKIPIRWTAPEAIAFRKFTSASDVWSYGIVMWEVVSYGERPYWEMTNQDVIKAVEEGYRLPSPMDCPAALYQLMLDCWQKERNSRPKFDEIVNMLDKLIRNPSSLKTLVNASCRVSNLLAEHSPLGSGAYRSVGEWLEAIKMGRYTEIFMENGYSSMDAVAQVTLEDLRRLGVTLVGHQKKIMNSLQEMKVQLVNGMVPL

CDK3 CCNE1 (human) = CDK3 CCNE1 (human) (UniProt Q00526+P24864)
Chain of CDK3 CCNE1 (human) (P24864 whole entry, looked up): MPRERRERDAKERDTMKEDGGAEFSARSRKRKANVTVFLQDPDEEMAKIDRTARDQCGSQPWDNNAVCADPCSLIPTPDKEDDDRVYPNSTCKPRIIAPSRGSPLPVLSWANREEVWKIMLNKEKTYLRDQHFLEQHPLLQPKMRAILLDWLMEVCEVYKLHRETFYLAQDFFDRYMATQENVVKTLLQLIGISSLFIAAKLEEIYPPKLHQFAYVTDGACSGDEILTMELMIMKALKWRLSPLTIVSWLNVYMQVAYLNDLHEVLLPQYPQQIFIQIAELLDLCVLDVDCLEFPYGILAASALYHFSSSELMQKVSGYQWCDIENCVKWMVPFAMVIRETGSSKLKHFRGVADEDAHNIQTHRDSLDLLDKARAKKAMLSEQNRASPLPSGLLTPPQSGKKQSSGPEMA
Chain of CDK3 CCNE1 (human) (Q00526 whole entry, looked up): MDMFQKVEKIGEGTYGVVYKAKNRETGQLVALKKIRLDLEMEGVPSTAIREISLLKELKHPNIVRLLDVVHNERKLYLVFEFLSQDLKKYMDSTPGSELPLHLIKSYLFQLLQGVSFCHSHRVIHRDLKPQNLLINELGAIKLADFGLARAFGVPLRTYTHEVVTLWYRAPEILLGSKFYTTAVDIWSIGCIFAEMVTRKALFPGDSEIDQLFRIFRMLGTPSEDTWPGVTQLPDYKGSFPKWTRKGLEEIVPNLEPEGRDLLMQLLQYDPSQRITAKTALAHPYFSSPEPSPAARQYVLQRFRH

SGK2 (human) = SGK2 (human) (UniProt Q9HBY8)
PRKD2 (human) = PRKD2 (human) (UniProt Q9BZL6)
ITK (human) = ITK (human) (UniProt Q08881)
DCLK2 (human) = DCLK2 (human) (UniProt Q8N568)
TEC (human) = TEC (human) (UniProt P42680)
KDR (human) = KDR (human) (UniProt P35968)
BRSK1 (human) = BRSK1 (human) (UniProt Q8TDC3)
PRKG2 (human) = PRKG2 (human) (UniProt Q13237)
RPS6KA1 KD1 KD2 (human) = RPS6KA1 KD1 KD2 (human) (UniProt Q15418)
ERBB4 (human) = ERBB4 (human) (UniProt Q15303)
MAPK12 (human) = MAPK12 (human) (UniProt P53778)
ACVR1 (human) = ACVR1 (human) (UniProt Q04771)
Chain of ACVR1 (human) (Q04771 whole entry, looked up): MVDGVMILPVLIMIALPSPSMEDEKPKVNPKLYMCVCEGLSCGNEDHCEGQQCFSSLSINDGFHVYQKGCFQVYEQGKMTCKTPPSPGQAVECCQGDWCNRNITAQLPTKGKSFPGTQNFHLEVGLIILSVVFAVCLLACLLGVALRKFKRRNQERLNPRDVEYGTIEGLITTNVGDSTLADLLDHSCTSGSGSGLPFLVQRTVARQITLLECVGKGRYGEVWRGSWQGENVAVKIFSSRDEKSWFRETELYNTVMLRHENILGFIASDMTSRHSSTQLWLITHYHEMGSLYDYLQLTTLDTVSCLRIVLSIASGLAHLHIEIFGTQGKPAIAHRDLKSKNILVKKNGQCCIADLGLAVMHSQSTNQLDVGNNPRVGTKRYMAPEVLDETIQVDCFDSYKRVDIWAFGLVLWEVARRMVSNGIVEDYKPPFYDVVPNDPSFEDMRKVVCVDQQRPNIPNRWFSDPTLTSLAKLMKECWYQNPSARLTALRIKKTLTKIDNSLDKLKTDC

MAP3K11 (human) = MAP3K11 (human) (UniProt Q16584)
DAPK2 (human) = DAPK2 (human) (UniProt Q9UIK4)
Chain of DAPK2 (human) (Q9UIK4 whole entry, looked up): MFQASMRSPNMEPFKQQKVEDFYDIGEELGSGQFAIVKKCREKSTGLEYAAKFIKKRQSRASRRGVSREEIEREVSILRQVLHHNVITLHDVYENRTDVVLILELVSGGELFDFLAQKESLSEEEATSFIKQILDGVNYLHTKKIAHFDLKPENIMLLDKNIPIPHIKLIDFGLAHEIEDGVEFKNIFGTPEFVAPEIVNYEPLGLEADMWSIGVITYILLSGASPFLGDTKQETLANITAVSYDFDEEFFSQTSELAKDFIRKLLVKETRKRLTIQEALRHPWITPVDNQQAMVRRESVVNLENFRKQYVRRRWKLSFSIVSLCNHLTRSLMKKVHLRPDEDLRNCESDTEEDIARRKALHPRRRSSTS

TGFBR2 (human) = TGFBR2 (human) (UniProt P37173)
Chain of TGFBR2 (human) (P37173 whole entry, looked up): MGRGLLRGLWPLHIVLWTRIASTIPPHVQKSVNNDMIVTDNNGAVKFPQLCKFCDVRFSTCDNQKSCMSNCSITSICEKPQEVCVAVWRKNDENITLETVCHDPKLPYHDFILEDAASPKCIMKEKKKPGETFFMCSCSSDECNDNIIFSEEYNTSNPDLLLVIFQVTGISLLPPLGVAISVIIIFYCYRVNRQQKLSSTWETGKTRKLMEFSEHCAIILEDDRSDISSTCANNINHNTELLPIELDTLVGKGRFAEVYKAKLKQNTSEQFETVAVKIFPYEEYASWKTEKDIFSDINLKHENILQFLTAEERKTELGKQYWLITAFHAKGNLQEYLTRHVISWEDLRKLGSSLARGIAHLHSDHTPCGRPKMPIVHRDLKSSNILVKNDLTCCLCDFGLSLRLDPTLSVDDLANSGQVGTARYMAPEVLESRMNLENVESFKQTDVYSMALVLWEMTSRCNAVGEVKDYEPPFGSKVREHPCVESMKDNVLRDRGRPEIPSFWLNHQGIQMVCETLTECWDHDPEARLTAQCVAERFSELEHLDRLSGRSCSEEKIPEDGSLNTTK

TAOK1 (human) = TAOK1 (human) (UniProt Q7L7X3)
STK38 (human) = STK38 (human) (UniProt Q15208)
STK10 (human) = STK10 (human) (UniProt O94804)
Chain of STK10 (human) (O94804 whole entry, looked up): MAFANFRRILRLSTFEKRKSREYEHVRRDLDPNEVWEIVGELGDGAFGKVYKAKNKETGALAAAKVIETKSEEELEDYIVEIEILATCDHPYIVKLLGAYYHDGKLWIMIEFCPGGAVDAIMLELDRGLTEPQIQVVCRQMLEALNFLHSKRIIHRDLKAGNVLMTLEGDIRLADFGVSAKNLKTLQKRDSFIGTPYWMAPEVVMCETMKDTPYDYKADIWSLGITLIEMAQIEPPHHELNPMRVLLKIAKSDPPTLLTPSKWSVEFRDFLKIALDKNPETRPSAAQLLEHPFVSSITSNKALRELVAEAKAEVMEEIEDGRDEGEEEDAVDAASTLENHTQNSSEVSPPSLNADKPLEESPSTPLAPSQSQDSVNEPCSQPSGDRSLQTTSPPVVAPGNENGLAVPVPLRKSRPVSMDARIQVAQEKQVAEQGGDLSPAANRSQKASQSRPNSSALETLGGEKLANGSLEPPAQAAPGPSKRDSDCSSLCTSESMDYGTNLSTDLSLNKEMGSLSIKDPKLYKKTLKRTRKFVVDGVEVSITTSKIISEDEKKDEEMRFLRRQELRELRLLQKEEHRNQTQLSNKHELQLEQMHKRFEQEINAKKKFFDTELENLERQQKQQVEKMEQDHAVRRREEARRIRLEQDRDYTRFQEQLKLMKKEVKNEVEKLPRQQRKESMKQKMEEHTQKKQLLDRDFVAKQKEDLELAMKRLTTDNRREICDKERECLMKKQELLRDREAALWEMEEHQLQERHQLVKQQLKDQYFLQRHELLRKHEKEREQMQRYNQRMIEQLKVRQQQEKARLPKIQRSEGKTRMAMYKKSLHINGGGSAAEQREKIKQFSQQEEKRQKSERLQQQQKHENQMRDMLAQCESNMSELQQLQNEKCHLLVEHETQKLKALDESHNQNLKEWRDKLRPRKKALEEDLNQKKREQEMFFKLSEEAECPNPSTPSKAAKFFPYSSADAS

SMILES: COc1ccc(S(=O)(=O)N(CCO)c2ccccc2CN(C)C/C=C/c2ccc(Cl)cc2)cc1
- residual activity (CAMK2D (human)): 91.8%
- residual activity (NEK2 (human)): 86.6%
- residual activity (CDK6 CCND3 (human)): 102%
- residual activity (MYO3B (human)): 90.2%
- residual activity (PBK (human)): 95.3%
- residual activity (EGFR (human)): 106%
- residual activity (NEK1 (human)): 104%
- residual activity (MAP4K4 (human)): 97.6%
- residual activity (SRPK1 (human)): 105%
- residual activity (ABL2 (human)): 97.4%
- residual activity (MARK3 (human)): 102%
- residual activity (HIPK4 (human)): 101%
- residual activity (GSK3A (human)): 99.9%
- residual activity (MYLK2 (human)): 97.8%
- residual activity (PAK4 (human)): 101%
- residual activity (EPHA3 (human)): 102%
- residual activity (TAOK3 (human)): 91.2%
- residual activity (CAMK2G (human)): 98.6%
- residual activity (PASK (human)): 103%
- residual activity (NLK (human)): 101%
- residual activity (CSNK1G2 (human)): 103%
- residual activity (TLK2 (human)): 96.6%
- residual activity (EPHA5 (human)): 98.1%
- residual activity (CDK3 CCNE1 (human)): 103%
- residual activity (SGK2 (human)): 99.8%
- residual activity (PRKD2 (human)): 99.8%
- residual activity (ITK (human)): 97.1%
- residual activity (DCLK2 (human)): 99.1%
- residual activity (TEC (human)): 101%
- residual activity (KDR (human)): 101%
- residual activity (BRSK1 (human)): 98.4%
- residual activity (PRKG2 (human)): 104%
- residual activity (RPS6KA1 KD1 KD2 (human)): 108%
- residual activity (ERBB4 (human)): 104%
- residual activity (MAPK12 (human)): 98.9%
- residual activity (ACVR1 (human)): 90.6%
- residual activity (MAP3K11 (human)): 99.3%
- residual activity (DAPK2 (human)): 107%
- residual activity (TGFBR2 (human)): 97.2%
- residual activity (TAOK1 (human)): 103%
- residual activity (STK38 (human)): 98.3%
- residual activity (STK10 (human)): 99.4%

From the kinase profiling compilation of Christmann-Franck et al. (2016)
